Assay results published in US20200325505A1, “FILAMENTOUS FUNGI CAPABLE OF PRODUCING VERY LONG CHAIN FATTY ACIDS” (UT-Battelle, LLC, priority 2019, published 2020).
Like-named read-outs stand apart in the source and are kept apart here. Residues, ends and D or L forms follow the SMILES beside them.

Tested on: Mortierella elongata AG77
Experiment: Carbon source utilisation in Biolog 96-well plates, formazan formation after tetrazolium addition
Format: cell-based
Conditions: for Metabolized: Metabolized = more formazan formation than a control containing no carbon source, observed visually at 2 h, 24 h, 148 h; for Carbon sources that Mortierella elongata AG77 can metabolize: summary of Table 3
Procedure: Two 300 mL volumes of growth medium comprising 1 g/L KH2PO4, 1 g/L MgSO4 7H2O, 0.1 g/L CaCl2, 0.02 g/L FeNaEDTA, 0.1 g/L NaCl, and either 1 g/L NH4NO3 or 20 g/L sucrose were prepared. Acidity was adjusted to 5.5 using NaOH and volumes of growth medium were autoclaved 30 min at 121° C. to sterilize. Aliquots of 200 μL of carbon-free medium or nitrogen-free medium were pipetted into each well of a set of 96-well plates previously prepared with lyophilized putative carbon or nitrogen sources (Biolog Inc., Hayward, Calif.). Inocula were prepared by perforating a culture of Mortierella elongata AG77 grown on 20 g/L potato dextrose agar with a 3 mm diameter cork borer and separating the surface mycelial mat from the solid growth medium using tweezers. Each well was inoculated with one inoculum. Cultures were incubated at 21° C. for 24 hours to allow metabolic changes to stabilize, and then 100 μL of 3 g/L tetrazolium chloride in water was added to each well. Formazan formation was observed visually at 2 h, 24 h, and 148 h.
Conclusions were based on rate and intensity of formazan formation using the 3-4,5-dimethylthiazol-2-yl)-2,5-diphenyltetrazolium bromide (MTT) assay. “Metabolized” indicates more formazan formation than a control containing no carbon source, and “Toxic” indicates less formazan formation than a control containing no carbon source. “Metabolized” and “Toxic” assignments are mutually exclusive. In this example, a compound may be “Metabolized” or “Toxic,” but not both.

[1] = compound as carbon source, Toxic = less formazan formation than a control containing no carbon source

## OC[C@H]1O[C@H](OC[C@H]2O[C@H](O[C@]3(CO)O[C@H](CO)[C@@H](O)[C@@H]3O)[C@H](O)[C@@H](O)[C@@H]2O)[C@H](O)[C@@H](O)[C@H]1O [D-Raffinose]
  Toxic: no
  Carbon sources that Mortierella elongata AG77 can metabolize: can metabolize
Compound as carbon source
  Metabolized: yes

## O=C1O[C@H](CO)[C@@H](O)[C@H]1O [D-Ribono-1,4-Lactone]
Compound as carbon source
  Metabolized: no
[1]
  Toxic: no

## O=C[C@H](O)[C@H](O)[C@H](O)CO [D-Ribose]
  Toxic: no
Compound as carbon source
  Metabolized: no

## O=C(O)[C@@H](O)[C@@H](O)[C@H](O)[C@@H](O)C(=O)O [D-Saccharic Acid]
  Toxic: no
Compound as carbon source
  Metabolized: no

## OC[C@@H](O)[C@@H](O)[C@H](O)[C@@H](O)CO [D-Sorbitol]
  Toxic: no
  Carbon sources that Mortierella elongata AG77 can metabolize: can metabolize
Compound as carbon source
  Metabolized: yes

## O=C(CO)[C@@H](O)[C@@H](O)[C@H](O)CO [D-Tagatose]
  Toxic: no
Compound as carbon source
  Metabolized: no

## O=C(O)[C@@H](O)[C@H](O)C(=O)O [D-Tartaric Acid]
Compound as carbon source
  Metabolized: no

## C[C@H](O)[C@@H](N)C(=O)O [D-Threonine]
  Toxic: no
  Carbon sources that Mortierella elongata AG77 can metabolize: can metabolize
Compound as carbon source
  Metabolized: yes

## OC[C@H]1O[C@H](O[C@H]2O[C@H](CO)[C@@H](O)[C@H](O)[C@H]2O)[C@H](O)[C@@H](O)[C@@H]1O [D-Trehalose]
Compound as carbon source
  Metabolized: yes
[1]
  Toxic: no
  Carbon sources that Mortierella elongata AG77 can metabolize: can metabolize

## O=C[C@H](O)[C@@H](O)[C@H](O)CO [D-Xylose]
  Toxic: no
Compound as carbon source
  Metabolized: no

## OC[C@@H](O)[C@H](O)[C@H](O)[C@@H](O)CO [Dulcitol]
  Toxic: no
Compound as carbon source
  Metabolized: no

## O=CO [Formic Acid]
Compound as carbon source
  Metabolized: no
[1]
  Toxic: no

## O=C(O)/C=C/C(=O)O [Fumaric Acid]
  Toxic: no
  Carbon sources that Mortierella elongata AG77 can metabolize: can metabolize
Compound as carbon source
  Metabolized: yes

## OCC(O)CO [Glycerol]
  Toxic: no
  Carbon sources that Mortierella elongata AG77 can metabolize: can metabolize
Compound as carbon source
  Metabolized: yes

## O=C(O)CO [Glycolic Acid]
Compound as carbon source
  Metabolized: yes
[1]
  Toxic: no
  Carbon sources that Mortierella elongata AG77 can metabolize: can metabolize

## NCC(=O)N[C@@H](CC(=O)O)C(=O)O [Glycyl-L-Aspartic Acid] (H-Gly-Asp-OH)
Compound as carbon source
  Metabolized: yes
[1]
  Toxic: no
  Carbon sources that Mortierella elongata AG77 can metabolize: can metabolize

## NCC(=O)N1CCC[C@H]1C(=O)O [Glycyl-L-Proline] (H-Gly-Pro-OH)
  Toxic: no
Compound as carbon source
  Metabolized: no

## O=CC(=O)O [Glyoxylic Acid]
Compound as carbon source
  Metabolized: no

## C=C(CC(=O)O)C(=O)O [Itaconic Acid]
Compound as carbon source
  Metabolized: no
[1]
  Toxic: no

## C[C@H](N)C(N)=O [L-Alaninamide]
Compound as carbon source
  Metabolized: yes
[1]
  Toxic: no
  Carbon sources that Mortierella elongata AG77 can metabolize: can metabolize

## O=C[C@H](O)[C@@H](O)[C@@H](O)CO [L-Arabinose]
  Toxic: no
Compound as carbon source
  Metabolized: no

## OC[C@H](O)C(O)[C@@H](O)CO [L-Arabitol]
Compound as carbon source
  Metabolized: no
[1]
  Toxic: no

## C[C@H](O)[C@@H](O)[C@@H](O)[C@H](O)C=O [L-Fucose]
Compound as carbon source
  Metabolized: no
[1]
  Toxic: no

## O=C1O[C@H]([C@@H](O)CO)[C@@H](O)[C@@H]1O [L-Galactonic Acid-γ-Lactone]
Compound as carbon source
  Metabolized: yes
[1]
  Toxic: no
  Carbon sources that Mortierella elongata AG77 can metabolize: can metabolize

## O=C[C@@H](O)[C@H](O)[C@@H](O)[C@@H](O)CO [L-Glucose]
  Toxic: no
Compound as carbon source
  Metabolized: no

## C[C@H](O)C(=O)O [L-Lactic Acid]
Compound as carbon source
  Metabolized: yes
[1]
  Toxic: no
  Carbon sources that Mortierella elongata AG77 can metabolize: can metabolize

## O=C[C@H](O)[C@H](O)[C@@H](O)CO [L-Lyxose]
  Toxic: no
Compound as carbon source
  Metabolized: no

## O=C(O)C[C@H](O)C(=O)O [L-Malic Acid]
Compound as carbon source
  Metabolized: no
[1]
  Toxic: no

## C[C@H](O)[C@H](O)[C@@H](O)[C@@H](O)C=O [L-Rhamnose]
Compound as carbon source
  Metabolized: no
[1]
  Toxic: no

## O=C(CO)[C@@H](O)[C@H](O)[C@@H](O)CO [L-Sorbose]
  Toxic: no
Compound as carbon source
  Metabolized: no

## O=C(O)[C@H](O)[C@@H](O)C(=O)O [L-Tartaric Acid]
Compound as carbon source
  Metabolized: no

## OC[C@@H](O)[C@@H](O[C@@H]1O[C@H](CO)[C@H](O)[C@H](O)[C@H]1O)[C@H](O)[C@@H](O)CO [Lactitol]
  Toxic: no
Compound as carbon source
  Metabolized: no

## O=C(O)CC(=O)O [Malonic Acid]
Compound as carbon source
  Metabolized: no

## OC[C@@H](O)[C@@H](O[C@H]1O[C@H](CO)[C@@H](O)[C@H](O)[C@H]1O)[C@H](O)[C@@H](O)CO [Maltitol]
Compound as carbon source
  Metabolized: no
[1]
  Toxic: no

## OC[C@H]1O[C@H](O[C@H]2[C@H](O)[C@@H](O)[C@H](O)O[C@@H]2CO)[C@H](O)[C@@H](O)[C@@H]1O [Maltose]
Compound as carbon source
  Metabolized: yes
  Carbon sources that Mortierella elongata AG77 can metabolize: can metabolize

## O=C(O)[C@H](O)[C@@H](O)[C@H](O)[C@H](O)CO[C@H]1O[C@H](CO)[C@H](O)[C@H](O)[C@H]1O [Melibionic Acid]
Compound as carbon source
  Metabolized: no
[1]
  Toxic: no

## COC(=O)C(C)=O [Methyl Pyruvate]
Compound as carbon source
  Metabolized: yes
[1]
  Toxic: no
  Carbon sources that Mortierella elongata AG77 can metabolize: can metabolize

## COC(=O)CCC(=O)O [Mono Methyl Succinate]
  Toxic: no

## O=C(O)[C@@H](O)[C@H](O)[C@H](O)[C@@H](O)C(=O)O [Mucic Acid]
  Toxic: no
Compound as carbon source
  Metabolized: no

## CC(=O)N[C@@H](CO)[C@@H](O)[C@H](O)[C@H](O)CO [N-Acetyl-D-Glucosaminitol]
Compound as carbon source
  Metabolized: no
[1]
  Toxic: no

## CC(=O)N[C@H]1[C@H]([C@H](O)[C@H](O)CO)OC(O)(C(=O)O)C[C@@H]1O (some centres unmarked) [N-Acetyl-Neuraminic Acid]
Compound as carbon source
  Metabolized: yes
[1]
  Toxic: no
  Carbon sources that Mortierella elongata AG77 can metabolize: can metabolize

## CC(=O)N[C@H]1[C@@H](O)[C@H](O)[C@@H](CO)O[C@H]1O [N-Acetyl-β-D-Mannosamine]
Compound as carbon source
  Metabolized: yes
[1]
  Toxic: no
  Carbon sources that Mortierella elongata AG77 can metabolize: can metabolize

## O=C(O)C(=O)O [Oxalic Acid]
Compound as carbon source
  Metabolized: no

## O=C(O)C(=O)C(C(=O)O)C(O)C(=O)O (centres unmarked) [Oxalomalic Acid]
  Toxic: no
Compound as carbon source
  Metabolized: no

## OC[C@H]1O[C@H](OC[C@H]2OC(O)(CO)[C@@H](O)[C@@H]2O)[C@H](O)[C@@H](O)[C@@H]1O (some centres unmarked) [Palatinose]
Compound as carbon source
  Metabolized: yes
[1]
  Toxic: no
  Carbon sources that Mortierella elongata AG77 can metabolize: can metabolize

## CCC(=O)O [Propionic Acid]
  Toxic: no
Compound as carbon source
  Metabolized: no

## CC(=O)C(=O)O [Pyruvic Acid]
Compound as carbon source
  Metabolized: no
[1]
  Toxic: no

## O=C(O)[C@]1(O)C[C@@H](O)[C@@H](O)[C@H](O)C1 [Quinic Acid]
  Toxic: no
Compound as carbon source
  Metabolized: no

## OCc1ccccc1O[C@@H]1O[C@H](CO)[C@@H](O)[C@H](O)[C@H]1O [Salicin]
  Toxic: no
  Carbon sources that Mortierella elongata AG77 can metabolize: can metabolize
Compound as carbon source
  Metabolized: yes

## O=C(O)CCCCCCCCC(=O)O [Sebacic Acid]
  Toxic: no
Compound as carbon source
  Metabolized: no

## CCC(C)N (centres unmarked) [Sec-Butylamine]
Compound as carbon source
  Metabolized: no
[1]
  Toxic: no

## OC[C@@]12OC[C@@H](O1)[C@@H](O)[C@@H](O)[C@@H]2O [Sedoheptulosan]
Compound as carbon source
  Metabolized: no
[1]
  Toxic: no

## C/C=C/C=C/C(=O)O [Sorbic Acid]
  Toxic: no
Compound as carbon source
  Metabolized: no

## OC[C@H]1O[C@H](OC[C@H]2O[C@H](OC[C@H]3O[C@H](O[C@]4(CO)O[C@H](CO)[C@@H](O)[C@@H]4O)[C@H](O)[C@@H](O)[C@@H]3O)[C@H](O)[C@@H](O)[C@H]2O)[C@H](O)[C@@H](O)[C@H]1O [Stachyose]
Compound as carbon source
  Metabolized: no
[1]
  Toxic: no

## NC(=O)CCC(=O)O [Succinamic Acid]
Compound as carbon source
  Metabolized: no
[1]
  Toxic: no

## O=C(O)CCC(=O)O [Succinic Acid]
  Toxic: no
Compound as carbon source
  Metabolized: no

## OC[C@H]1O[C@@](CO)(O[C@H]2O[C@H](CO)[C@@H](O)[C@H](O)[C@H]2O)[C@@H](O)[C@@H]1O [Sucrose]
  Toxic: no
Compound as carbon source
  Metabolized: no

## O=C(O)CC(CC(=O)O)C(=O)O [Tricarballylic Acid]
  Toxic: no
  Carbon sources that Mortierella elongata AG77 can metabolize: can metabolize
Compound as carbon source
  Metabolized: yes

## O=C(CO)[C@@H](O[C@H]1O[C@H](CO)[C@@H](O)[C@H](O)[C@H]1O)[C@H](O)[C@H](O)CO [Turanose]
Compound as carbon source
  Metabolized: no
[1]
  Toxic: no

## OC[C@@H](O)[C@H](O)[C@@H](O)CO [Xylitol]
  Toxic: no
Compound as carbon source
  Metabolized: no
